Counter-ions that a name gives are not always drawn.

The first experiment has as its target T1, N-formyl peptide receptor 2 (Homo sapiens, UniProt P25090).
T1 sequence (P25090 whole entry): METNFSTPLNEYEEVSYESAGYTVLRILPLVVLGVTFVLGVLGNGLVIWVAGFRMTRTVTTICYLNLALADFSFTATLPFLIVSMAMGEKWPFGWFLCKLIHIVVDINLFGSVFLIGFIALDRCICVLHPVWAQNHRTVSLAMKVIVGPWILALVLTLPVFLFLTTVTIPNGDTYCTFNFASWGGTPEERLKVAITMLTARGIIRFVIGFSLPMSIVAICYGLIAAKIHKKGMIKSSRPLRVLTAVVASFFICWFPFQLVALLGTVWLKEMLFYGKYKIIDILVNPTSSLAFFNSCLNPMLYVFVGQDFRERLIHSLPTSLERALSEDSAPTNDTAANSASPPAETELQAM
Briefly: concentration-dependent FPRL1 ligand displacement – cell-based, FPR counter-screen, fluorescent ligand, dose response (AID 520).
Settings: not given
(In general: Counterscreens check selectivity or assay interference.)
What is called IC50 is the concentration at which inhibition is half-maximal. A higher IC50 goes with weaker potency. In the case of `O=C(Nc1ccc(Nc2ccccc2)cc1)c1ccc(Br)o1` [5-bromanyl-N-(4-phenylazanylphenyl)furan-2-carboxamide], the IC50 is greater than 66.7 µM. `CN1CCN(CCCNC(=O)Nc2cccc3ccccc23)CC1` [1-[3-(4-methyl-1-piperazinyl)propyl]-3-(1-naphthalenyl)urea] returned an IC50 greater than 66.7 µM. For orientation: Ki means the dissociation constant of the complex between target and ligand, obtained from inhibition or displacement. Regarding `COc1cc(C2C(C(=O)c3ccco3)C(=O)C(=O)N2CCc2ccccc2)ccc1O` (stereo not drawn) [3-(furan-2-carbonyl)-4-hydroxy-2-(4-hydroxy-3-methoxyphenyl)-1-(2-phenylethyl)-2H-pyrrol-5-one], the IC50 is greater than 66.7 µM and the Ki is greater than 40.3 µM. In turn, `COc1cccc(C2C(C(=O)c3cc4ccccc4o3)C(=O)C(=O)N2c2cc(C)on2)c1OC` (stereo not drawn) [3-(1-benzofuran-2-carbonyl)-2-(2,3-dimethoxyphenyl)-4-hydroxy-1-(5-methyl-1,2-oxazol-3-yl)-2H-pyrrol-5-one] showed an IC50 greater than 66.7 µM and a Ki greater than 40.3 µM. The compound `Cc1nc(C)c(C(=O)C2C(=O)C(=O)N(CCCn3ccnc3)C2c2ccc(Cl)cc2)s1` (stereo not drawn) [2-(4-chlorophenyl)-3-(2,4-dimethyl-1,3-thiazole-5-carbonyl)-4-hydroxy-1-(3-imidazol-1-ylpropyl)-2H-pyrrol-5-one] registered an IC50 greater than 66.7 µM and a Ki greater than 40.3 µM.

Consider `CCn1cc(C(=O)NC2CCC(C)CC2)c(=O)c2cc(S(=O)(=O)N3CCCCC3)ccc21` (stereo not drawn), for which the IC50 was greater than 66.7 µM.

In the case of `Cc1ccc(C(=O)C2C(=O)C(=O)N(Cc3ccccc3)C2c2cccnc2)o1` (stereo not drawn) [1-benzyl-3-hydroxy-4-[(5-methylfuran-2-yl)carbonyl]-5-(pyridin-3-yl)-2,5-dihydro-1H-pyrrol-2-one], the IC50 is greater than 66.7 µM and the inhibitory constant (Ki) was greater than 40.3 µM. The matching figures for `COc1cc(C2C(C(=O)c3ccc(C)o3)C(=O)C(=O)N2Cc2cccnc2)ccc1O` (stereo not drawn) [2-(3-methoxy-4-oxidanyl-phenyl)-3-(5-methylfuran-2-yl)carbonyl-4-oxidanyl-1-(pyridin-3-ylmethyl)-2H-pyrrol-5-one]: greater than 66.7 µM and greater than 40.3 µM. Compound `CCOc1ccc(C2C(C(=O)c3ccco3)C(=O)C(=O)N2Cc2cccnc2)cc1` (stereo not drawn) [2-(4-ethoxyphenyl)-3-(furan-2-carbonyl)-4-hydroxy-1-(pyridin-3-ylmethyl)-2H-pyrrol-5-one] yielded an IC50 greater than 66.7 µM and a Ki greater than 40.3 µM.

As to `CCOc1ccc(C2C(C(=O)c3ccco3)C(=O)C(=O)N2CCCn2ccnc2)cc1` (stereo not drawn) [2-(4-ethoxyphenyl)-3-(furan-2-carbonyl)-4-hydroxy-1-(3-imidazol-1-ylpropyl)-2H-pyrrol-5-one], the half-maximal inhibitory concentration (IC50) is greater than 66.7 µM and the inhibitory constant (Ki) was greater than 40.3 µM.

The compound `Cc1cccc(Nc2ccccc2C(=O)NCc2ccco2)c1C` [2-(2,3-dimethylanilino)-N-(2-furanylmethyl)benzamide] gave an IC50 greater than 66.7 µM.

For the compound `COc1cccc(C2C(C(=O)c3ccc(OC)c(OC)c3)C(=O)C(=O)N2c2cc(C)on2)c1` (stereo not drawn) [(4E)-4-[(3,4-dimethoxyphenyl)-hydroxy-methylene]-5-(3-methoxyphenyl)-1-(5-methylisoxazol-3-yl)pyrrolidine-2,3-quinone], the IC50 was greater than 66.7 µM and the Ki is greater than 40.3 µM. `CCOC(=O)N1CCC(NC(=O)c2cc(C(=O)Nc3ccc(OC)c(OC)c3)ccc2CO)CC1` [4-[[5-[(3,4-dimethoxyphenyl)carbamoyl]-2-methylol-benzoyl]amino]piperidine-1-carboxylic acid ethyl ester]: the IC50 is greater than 66.7 µM. Regarding `COc1cc(C2C(C(=O)c3ccc(C)o3)C(=O)C(=O)N2CCc2ccccc2)ccc1O` (stereo not drawn) [2-(3-methoxy-4-oxidanyl-phenyl)-3-(5-methylfuran-2-yl)carbonyl-4-oxidanyl-1-(2-phenylethyl)-2H-pyrrol-5-one], the IC50 is greater than 66.7 µM and the Ki is greater than 40.3 µM. Compound `Cc1ccc(NC(=O)C2C(=O)N(CCO)C3(C)CC2c2ccccc2O3)cc1` (stereo not drawn) [SMR000015827] registered a half-maximal inhibitory concentration (IC50) greater than 66.7 µM. For `O=C(NCCCN1CCN(c2ccc(F)cc2)CC1)c1cccc(N2CCCC2=O)c1` [MLS000046779], the 50% inhibitory concentration (IC50) was greater than 66.7 µM. The compound `CCOC(=O)c1c(C)[nH]c(C=Nc2ccccc2)c1O` [(5Z)-5-(anilinomethylidene)-2-methyl-4-oxo-1H-pyrrole-3-carboxylic acid ethyl ester] showed an IC50 greater than 66.7 µM. `CCOC(=O)CCn1nc(-c2ccc(Cl)cc2)cc1N` [3-[5-amino-3-(4-chlorophenyl)-1-pyrazolyl]propanoic acid ethyl ester] gave an IC50 greater than 66.7 µM. `CC(C)CN(CC(C)C)C(=O)CS(=O)(=O)Cc1ccccc1` [2-(benzylsulfonyl)-N,N-diisobutylacetamide] came in with an IC50 greater than 66.7 µM.

The compound `CC1(C)S[C@@H]2[C@H](NC(=O)C(C(=O)O)c3ccccc3)C(=O)N2[C@H]1C(=O)O` (stereo partly drawn) [CARBENICILLIN DISODIUM SALT] came in with an IC50 greater than 66.7 µM.

Turning to `COc1ccccc1NC(=O)CSc1nnc(Cn2nnc(-c3ccccc3)n2)n1-c1ccccc1` [MLS000032410], the IC50 is greater than 66.7 µM. As for `COc1ccc(C2C(C(=O)c3cccs3)C(=O)C(=O)N2c2nnc(C)s2)cc1OC` (stereo not drawn) [2-(3,4-dimethoxyphenyl)-1-(5-methyl-1,3,4-thiadiazol-2-yl)-4-oxidanyl-3-thiophen-2-ylcarbonyl-2H-pyrrol-5-one], the 50% inhibitory concentration (IC50) is greater than 66.7 µM and the Ki was greater than 40.3 µM. Take `COc1ccc(CCN2C(=O)C(=O)C(C(=O)c3ccco3)C2c2cccs2)cc1OC` (stereo not drawn) [1-[2-(3,4-Dimethoxy-phenyl)-ethyl]-4-(furan-2-carbonyl)-3-hydroxy-5-thiophen-2-yl-1,5-dihydro-pyrrol-2-one]: the IC50 was greater than 66.7 µM and the Ki was greater than 40.3 µM. In turn, `O=C(NCc1cccnc1)C1c2ccccc2C(=O)N1C1CCCCCCC1` (stereo not drawn) [2-cyclooctyl-3-keto-N-(3-pyridylmethyl)isoindoline-1-carboxamide] displayed an IC50 greater than 66.7 µM.

With `Nc1ccc(Nc2ccccc2)cc1`, the IC50 is greater than 66.7 µM. As to `CC1CCN(c2nc(-c3ccccc3)c(C#N)c(=O)[nH]2)CC1` [4-hydroxy-2-(4-methylpiperidin-1-yl)-6-phenylpyrimidine-5-carbonitrile], the IC50 is greater than 66.7 µM. On the same count and under the same terms, to `O=C(NCCN1CCOCC1)NC1(C(F)(F)F)Oc2ccc(Cl)cc2O1` (stereo not drawn) belongs greater than 66.7 µM. `COCCN1C(=O)C(=O)C(C(=O)c2cccs2)C1c1ccccc1` (stereo not drawn) [1-(2-methoxyethyl)-4-oxidanyl-2-phenyl-3-thiophen-2-ylcarbonyl-2H-pyrrol-5-one] had an IC50 greater than 66.7 µM and a Ki greater than 40.3 µM.

`CCOc1cccc(C(=O)C2C(=O)C(=O)N(Cc3cccnc3)C2c2ccco2)c1` (stereo not drawn) [(4Z)-4-[(3-ethoxyphenyl)-hydroxymethylidene]-5-(2-furanyl)-1-(3-pyridinylmethyl)pyrrolidine-2,3-dione] showed an IC50 greater than 66.7 µM and a Ki greater than 40.3 µM. Compound `COc1ccc(-c2c(C)oc3c(CN4CCN(CCO)CC4)c(O)ccc3c2=O)cc1OC` [3-(3,4-dimethoxyphenyl)-7-hydroxy-8-[[4-(2-hydroxyethyl)-1-piperazinyl]methyl]-2-methyl-1-benzopyran-4-one] had an IC50 greater than 66.7 µM. `CCOC(=O)Nc1ccc(OC)cc1S(=O)(=O)N1CCCCC1` [MLS000048808] came in with an IC50 greater than 66.7 µM. The compound `Cc1cc(N2C(=O)C(=O)C(C(=O)c3ccco3)C2c2cccnc2)no1` (stereo not drawn) [3-(furan-2-carbonyl)-4-hydroxy-1-(5-methyl-1,2-oxazol-3-yl)-2-pyridin-3-yl-2H-pyrrol-5-one] registered an IC50 greater than 66.7 µM and an inhibition constant (Ki) greater than 40.3 µM.

As to `COc1ccc(-c2nnc(Nc3nc4c(OC)cccc4s3)o2)cc1` [MLS000045458], the IC50 is greater than 66.7 µM.

As to `COc1ccccc1Oc1c(C)oc2c(CN(C)C)c(O)ccc2c1=O` [8-Dimethylaminomethyl-7-hydroxy-3-(2-methoxy-phenoxy)-2-methyl-chromen-4-one], the IC50 was greater than 66.7 µM. `COc1ccc(-c2cc(C(F)(F)F)nc(NC3CCCC3)n2)cc1OC` [MLS000086438] showed an IC50 greater than 66.7 µM. Consider `COc1cc2c3c(c1)/C(=C1/SC(NC(C)=O)=NC1=O)C(=O)N3C(C)(C)C=C2C` [N-[5-(8-methoxy-4,4,6-trimethyl-2-oxo-4H-pyrrolo[3,2,1-ij]quinolin-1(2H)-ylidene)-4-oxo-4,5-dihydro-1,3-thiazol-2-yl]acetamide], for which the IC50 is greater than 66.7 µM. Compound `Fc1ccc(-c2nnc3ccc(N4CCCC4)nn23)cc1` [3-(4-fluorophenyl)-6-(1-pyrrolidinyl)-[1,2,4]triazolo[4,3-b]pyridazine] showed a half-inhibitory concentration (IC50) greater than 66.7 µM.

As for `CC1CCN(S(=O)(=O)c2ccc3c(c2)oc(=O)n3CC(=O)NCc2ccc3c(c2)OCO3)CC1` [2-[2-keto-6-(4-methylpiperidino)sulfonyl-1,3-benzoxazol-3-yl]-N-piperonyl-acetamide], the half-inhibitory concentration (IC50) is greater than 66.7 µM. As to `CCC(CCC(=O)Nc1cccc(C(=O)O)c1)C(=O)O` (stereo not drawn) [3-(4-carboxyhexanoylamino)benzoic acid], the IC50 is greater than 66.7 µM. In the case of `O=C1Nc2ccccc2/C1=C1/SC(=S)N(CC2CCCO2)C1=O` (stereo not drawn) [(5Z)-5-(2-ketoindolin-3-ylidene)-3-(tetrahydrofurfuryl)-2-thioxo-thiazolidin-4-one], the IC50 is greater than 66.7 µM and the Ki was greater than 40.3 µM. Compound `CCCCCNC(=O)c1ccc2c(=O)[nH]c3c(C(=O)NCC4CCCO4)sc(=S)n3c2c1` (stereo not drawn) [5-oxo-N3-(2-oxolanylmethyl)-N8-pentyl-1-sulfanylidene-4H-thiazolo[3,4-a]quinazoline-3,8-dicarboxamide] had an IC50 greater than 66.7 µM. The same measure, in the same setting: to `Cc1ccc(Nc2ccc(C(=O)O)cc2N)cc1` [3-amino-4-(4-methylanilino)benzoic acid] belongs greater than 66.7 µM.

Staying with this experiment, now noted: inactive by the depositor's call.
As for `Cc1[nH]n2c(=O)cc(-c3ccc([N+](=O)[O-])cc3)nc2c1-c1ccccc1` [MLS000547439], the IC50 is 31.7 µM.

The record behind these values is BindingDB's records for doi:10.7270/Q2DF6PMF (Nmmlsc, 2007).
